Experimental data reported in patent US11485747B2, “Diphenylmethane protective agent” (priority 2016, dated 2022).
Values after ≈ are worked out from the molar mass of the structure shown. Where a SMILES comes first, the peptide text is derived from it.

Test: physchem
Format: physicochemical
Experimental: Peptide used as model: H-Gly-Gly-Gly-NH2
H-Gly-Gly-Gly-NH2 and H-Gly-Gly-Gly-NH-(TIPS2-Dpm) were synthesized, CPME (cyclopentyl methyl ether) was saturated with each of the compounds at 25° C., and the solubility was measured.

Row | Structure (SMILES) | solubility [mM] | increase in solubility
1 | NCC(=O)NCC(=O)NCC(N)=O [H-Gly-Gly-Gly-NH2, reference compound] (H-Gly-Gly-Gly-NH2) | 0.039 (≈ 0.00734 mg/mL) | –
2 | CC(C)[Si](OCCCCCCCCCCCOc1ccc(C(NC(=O)CNC(=O)CNC(=O)CN)c2ccc(OCCCCCCCCCCCO[Si](C(C)C)(C(C)C)C(C)C)cc2)cc1)(C(C)C)C(C)C [H-Gly-Gly-Gly-NH-(TIPS2-Dpm)] | 426 (≈ 443 mg/mL) | ≥ 10,000 fold
